Several values for one entry are separate records, joined by “and”; a condition that tells them apart may be missing. Equal values may be shown once. [ ]: non-standard residue; d: D form. The star is where a group is joined. ACC = NC(=O)Cc1cc(=O)oc2cc(N*)ccc12; Nle = CCCC[C@H](N)C(=O)O; OBn = c1ccc(CO*)cc1; Bn = c1ccc(C*)cc1
Tests used:
Assay type in all cases: biochemical
fXIa [1] = target: T1, fXIa (Homo sapiens, UniProt P03951); assay: Labeling of purified coagulation factors with ABPs, SDS-PAGE and blot; parameters: complete conversion of the single chain zymogen to the two-chain active form; made in house; host or cells: HEK293 cells expressing EBNA (pCEP4 vector); conditions: APC, thrombin, fXa, fXIa 200 nM each, separately, probe/enzyme 1:1, 30 min, 37 °C; for labeling of purified coagulation factors by biotinylated ABP (western blot): streptavidin Alexa Fluor 647, 658 nm
Experimental: To determine biotin-labeled ABPs selectivity, four purified coagulation factors (APC, thrombin, fXa, and fXIa) with a constant concentration of 200 nM were incubated separately with each probe (the probe/enzyme ratio was 1) in assay buffer for 30 min at 37 °C. Each enzyme was incubated with each probe in a volume of 40 μL followed by reduction with 20 μL of 3 × SDS/DTT for 5 min at 95 °C. The first well was loaded with 0.5 μL of the protein marker PageRuler Prestained Protein Ladder (Thermo Scientific), and then 10 μL of each sample was run on a 12% (w/v) 15-well gel. SDS–PAGE separation was performed at 200 V for 39 min followed by a wet tank transfer to a nitrocellulose membrane (0.2 μm, Bio-Rad) at 10 V for 60 min. The membrane was blocked with 2.5% BSA in TBS-T (Tris-buffered saline with 0.1% (v/v) Tween 20) for 60 min at room temperature. Next, the membrane was incubated with fluorescent streptavidin Alexa Fluor 647 conjugate (dilution 1:10,000 in TBS-T with 1% BSA) for 60 min. The biotin-labeled ABPs were detected at 658 nm using an Azure Biosystems Sapphire Biomolecular Imager and Azure Spot Analysis software.
For fluorescently labeled probe sample preparation, electrophoresis and membrane transfer were performed as described above. When testing the inhibitor utility, 200 nM fXIa was incubated with inhibitor (final inhibitor concentration 5 μM) for 60 min prior to probe addition. After the membrane was blocked with 2.5% BSA in TBS-T (60 min), the labeled proteins were directly imaged with a […] laser using an Azure Biosystems Sapphire Biomolecular Imager and Azure Spot Analysis software.

fXIa [2] = target: T1, fXIa; assay: Screening of individual substrates (hydrolysis rate, RFU/s); parameters: complete conversion of the single chain zymogen to the two-chain active form; made in house; host or cells: HEK293 cells expressing EBNA (pCEP4 vector); conditions: substrate 1 μM, 5 nM fXIa, RFU/s over 30 min, 37 °C
Experimental: (§1) All kinetic assays were performed using a spectrofluorometer (Molecular Devices SpectraMax Gemini XPS) on 96-well, white, flat bottom, nontreated plates (Corning). The parameters were as follows: excitation/emission wavelength, 355/460 nm (cutoff, 455 nm); varying concentrations of substrates, ABPs, inhibitor, and enzymes. The assay buffer (20 mM Tris-base, 150 mM NaCl, 5 mM CaCl2, pH 7.4) was prepared at room temperature, and the enzyme kinetic studies were performed at 37 °C. All enzymes were preincubated in assay buffer for 15 min at 37 °C before addition to the wells. Each assay was repeated at least twice, and the data represent the average of these repetitions. The obtained results were analyzed using SoftMax (Molecular Devices), GraphPad Prism, and Microsoft Excel software.
All potentially selective fXIa substrates were tested for their selectivity against four coagulation factors, APC, thrombin, fXa, and fXIa at a concentration of 1 μM. The assay conditions were as follows: 1 μL of each substrate was placed in separate wells on the plate followed by the addition of 99 μL of preincubated enzyme (15 min, 37 °C) in assay buffer. To obtain reliable results and a robust fluorescence signal, the final enzyme concentration was 120 nM for APC, 20 nM for thrombin, 70 nM for fXa, and 5 nM for fXIa. Substrate hydrolysis was measured for 30 min (λex = 355 nm, λem = 460 nm), and the linear part of each progress curve was used to determine the substrate hydrolysis rate (RFU/s). The obtained RFU/s were then adjusted to represent the value corresponding to the same enzyme activity.

fXIa [3] = target: T1, fXIa; assay: P1 substrate specificity, defined library Ac-Ala-Arg-Leu-P1-ACC; parameters: complete conversion of the single chain zymogen to the two-chain active form; made in house; host or cells: HEK293 cells expressing EBNA (pCEP4 vector); conditions: individual substrates Ac-Ala-Arg-Leu-P1-ACC, 100 μM, 8 nM fXIa, RFU/s, best residue = 100%, n = 2
Experimental: as §1
To determine fXIa preferences at the P1 position, we used the Ac-Ala-Arg-Leu-P1-ACC library of 133 individual fluorogenic substrates.[34] The assay conditions were as follows: 0.5 μL of each library substrate was placed in one well, and 99.5 μL of preincubated enzyme (15 min, 37 °C) was added. The final library concentration was 100 μM, and the enzyme concentration was 8 nM. The release of ACC was measured for 30 min (λex = 355 nm, λem = 460 nm), but only the linear portion of each progress curve was used to determine the substrate hydrolysis rate (RFU/s, relative fluorescence unit per second). […]

APC = target: T2, APC (Homo sapiens, UniProt P04070); assay: Kinetic parameters (kcat/KM) of ACC-labeled substrates; conditions: Michaelis-Menten, 425 nM APC, assay buffer pH 7.4, 37 °C, ACC release 30 min; mean ± s.d., n = 3
T2 construct: from tissue; host or cells: fresh frozen plasma
Experimental: (§2) Protein C, factor X, and prothrombin were purified from fresh frozen plasma and then activated as previously described.[33]
as §1
(§3) The kinetic parameters (kcat, KM, and kcat/KM) of selected ACC-labeled substrates were determined using Michaelis–Menten nonlinear regression according to the protocol described by Poreba et al.[62] Each substrate was serially diluted until the eighth well to obtain substrate concentrations ranging from 1.16 nM to 111 μM depending on the substrate used. Next, each enzyme was preincubated (15 min, 37 °C) in assay buffer to a final enzyme concentration of 425 nM for APC, 70 nM for thrombin, 200 nM for fXa, and 5 nM for fXIa and was added to the wells containing eight different substrate concentrations. The release of ACC was measured for 30 min (λex = 355 nm, λem = 460 nm). The linear part of each progression curve was used to calculate the kinetic parameters using GraphPad Prism and Microsoft Excel software.

fXIa [4] = target: T1, fXIa; assay: as above; parameters: complete conversion of the single chain zymogen to the two-chain active form; made in house; host or cells: HEK293 cells expressing EBNA (pCEP4 vector); conditions: for kcat/KM fXIa: Michaelis-Menten, 5 nM fXIa, 20 mM Tris, 150 mM NaCl, 5 mM CaCl2, pH 7.4, 37 °C, ACC release 30 min, mean ± s.d., n = 3
Experimental: as §1, §3

fXa = target: T3, fXa (Homo sapiens, UniProt P00742); assay: as above; conditions: Michaelis-Menten, 200 nM fXa, assay buffer pH 7.4, 37 °C, ACC release 30 min; mean ± s.d., n = 3
T3 construct: from tissue; host or cells: fresh frozen plasma
Experimental: as §2, §1, §3

thrombin = target: T4, thrombin (Homo sapiens, UniProt P00734); assay: as above; conditions: Michaelis-Menten, 70 nM thrombin, assay buffer pH 7.4, 37 °C, ACC release 30 min; mean ± s.d., n = 3
T4 construct: from tissue; host or cells: fresh frozen plasma
Experimental: as §2, §1, §3

fXIa [5] = target: T1, fXIa; assay: Detection of fXIa in human plasma with fluorescent ABP; conditions: EDTA plasma, 60 min, 37 °C
Experimental: Human plasma (collected in tubes containing anticoagulant EDTA) was isolated from whole blood as described elsewhere[33] and incubated with a fluorescently labeled probe at probe concentrations ranging from 1 to 20 μM. Incubation was carried out in assay buffer for 60 min at 37 °C. Plasma was incubated with the probe in a total volume of 40 μL (20 μL of plasma and 20 μL of probe) followed by reduction with 20 μL of 3 × SDS/DTT for 5 min at 95 °C. The first well was loaded with 0.5 μL of the protein marker PageRuler Prestained Protein Ladder (Thermo Scientific), and then 5 μL of each sample was run on a 12% (w/v) 15-well gel. SDS–PAGE separation was performed at 200 V for 39 min followed by transfer to a nitrocellulose membrane (0.2 μm, Bio-Rad) at 10 V for 60 min. The membrane was blocked with 2.5% BSA in TBS-T for 60 min at room temperature. Next, the membrane was treated with sheep antihuman polyclonal fXI antibody (Haematologic Technologies Inc., PAHFXI-S, 1:1000) for 7 h followed by incubation with Alexa Fluor 680 donkey antisheep secondary antibody (Life Technologies, A21102, 2:10,000) for 1 h (both at room temperature). The membrane was then scanned using an Azure Biosystems Sapphire Biomolecular Imager and Azure Spot Analysis software for fXIa at 488 nm (for BODIPY detection) and 658 nm (for antibody detection).

T1 sequence (P03951 388-625 limits assumed): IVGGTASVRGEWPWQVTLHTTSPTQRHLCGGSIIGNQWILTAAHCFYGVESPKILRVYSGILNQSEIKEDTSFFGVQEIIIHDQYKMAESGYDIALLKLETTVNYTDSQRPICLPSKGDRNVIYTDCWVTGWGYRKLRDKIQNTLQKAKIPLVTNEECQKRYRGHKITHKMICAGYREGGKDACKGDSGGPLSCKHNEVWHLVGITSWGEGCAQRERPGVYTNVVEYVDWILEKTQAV
T1 sequence (P03951 19-387 partner limits assumed): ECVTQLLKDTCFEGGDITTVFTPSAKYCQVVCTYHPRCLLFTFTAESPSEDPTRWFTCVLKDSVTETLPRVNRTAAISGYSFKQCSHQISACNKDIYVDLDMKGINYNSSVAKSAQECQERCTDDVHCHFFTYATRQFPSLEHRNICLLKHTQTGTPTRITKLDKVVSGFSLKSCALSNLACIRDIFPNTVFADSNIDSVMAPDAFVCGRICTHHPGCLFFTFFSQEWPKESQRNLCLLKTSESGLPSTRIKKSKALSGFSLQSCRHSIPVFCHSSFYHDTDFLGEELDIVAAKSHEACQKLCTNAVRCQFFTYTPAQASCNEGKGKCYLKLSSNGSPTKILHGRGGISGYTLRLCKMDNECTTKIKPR
T2 sequence (P04070 212-461 limits assumed): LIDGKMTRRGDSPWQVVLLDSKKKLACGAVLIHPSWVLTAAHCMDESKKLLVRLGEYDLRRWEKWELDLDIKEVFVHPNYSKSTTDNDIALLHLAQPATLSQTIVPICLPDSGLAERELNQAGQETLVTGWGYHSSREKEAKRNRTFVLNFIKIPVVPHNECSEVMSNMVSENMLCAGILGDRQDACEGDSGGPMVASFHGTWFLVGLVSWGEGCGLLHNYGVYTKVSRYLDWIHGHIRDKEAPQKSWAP
T2 sequence (P04070 43-197 partner limits assumed): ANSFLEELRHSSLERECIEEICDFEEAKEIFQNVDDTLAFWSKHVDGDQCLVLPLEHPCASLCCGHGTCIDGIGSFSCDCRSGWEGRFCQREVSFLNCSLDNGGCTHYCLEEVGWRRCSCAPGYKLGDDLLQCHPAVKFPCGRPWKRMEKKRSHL
T3 sequence (P00742 235-488 limits assumed): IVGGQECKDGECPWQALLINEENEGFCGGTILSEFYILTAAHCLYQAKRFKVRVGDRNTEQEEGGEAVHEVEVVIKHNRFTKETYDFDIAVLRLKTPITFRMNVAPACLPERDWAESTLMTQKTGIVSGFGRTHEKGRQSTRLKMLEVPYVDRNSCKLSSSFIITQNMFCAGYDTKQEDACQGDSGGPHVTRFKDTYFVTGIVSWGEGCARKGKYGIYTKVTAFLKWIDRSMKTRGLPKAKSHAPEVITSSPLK
T3 sequence (P00742 41-179 partner limits assumed): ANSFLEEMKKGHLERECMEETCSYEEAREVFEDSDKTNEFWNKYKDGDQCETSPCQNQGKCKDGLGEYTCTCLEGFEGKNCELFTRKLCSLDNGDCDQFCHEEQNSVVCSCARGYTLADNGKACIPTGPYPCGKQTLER

With “biotin-PEG(4)-Tyr(2,6-Cl2-Z)-Dht-His(Bzl)-ArgP(OPh)2 [P-SMXI191]” the “labeling of purified coagulation factors by biotinylated ABP (western blot)” value (fXIa [1]) was “only one signal from a protein between 35 and 40 kDa, corresponding to a fXIa monomer”.

With “Ac-Tyr(2,6-Cl2-Z)-2-Aoc-Nle(O-Bzl)-Arg-ACC [SMXI22]” the “decrease in activity relative to SMXI3 (P2 L-His(Bzl))” value (fXIa [2]) was 2.6 fold.

L-Arg was tested, and the “relative activity at the P1 position” value (fXIa [3]) was 100%.

With “Ac-Tyr(2,6-Cl2-Z)-2-Aoc-hSer(Bzl)-Arg-ACC [SMXI23]” the “decrease in activity relative to SMXI3 (P2 L-His(Bzl))” value (fXIa [2]) was 5.5 fold.

With “Ac-Y(Bn)[Nle]E(OBn)R-{ACC} (SMILES CCCC[C@H](NC(=O)[C@H](Cc1ccc(OCc2ccccc2)cc1)NC(C)=O)C(=O)N[C@@H](CCC(=O)OCc1ccccc1)C(=O)N[C@@H](CCCNC(=N)N)C(=O)Nc1ccc2c(CC(N)=O)cc(=O)oc2c1) [SMXI13]” the “activity on fXIa relative to SMXI5” value (fXIa [2]; more active than SMXI5) was “fourfold”.

In the case of “Ac-Tyr(2,6-Cl2-Z)-Dht-His(Bzl)-Arg-ACC [SMXI19]”, the “kcat/KM APC” value (APC) was 91 ± 3 M⁻¹ s⁻¹, the “kcat/KM fXIa” value (fXIa [4]) was 247,000 ± 5,000 M^-1 s^-1 and 247,000 ± 5000 M^-1 s^-1 and the “fold better hydrolyzed by fXIa than by fXa (kcat/KM ratio)” value (fXIa [4]; fXIa over fXa) was 80 fold. The “fold better hydrolyzed by fXIa than by thrombin (kcat/KM ratio)” value (fXIa [4]; fXIa over thrombin) was 28 fold.

In the case of “biotin-PEG(4)-Tyr(2,6-Cl2-Z)-Nle-Glu(Bzl)-ArgP(OPh)2 [P-SMXI51]”, the “labeling of purified coagulation factors by biotinylated ABP (western blot)” value (fXIa [1]) was “only one signal from a protein between 35 and 40 kDa, corresponding to a fXIa monomer”.

For “Ac-Tyr(2,6-Cl2-Z)-Nle-Glu(Bzl)-Arg-ACC [SMXI5]”, the “kcat/KM fXa” value (fXa) was 4,500 ± 300 M^-1 s^-1, the kcat/KM thrombin (thrombin) was 11,000 ± 300 M^-1 s^-1 and the “kcat/KM fXIa” value (fXIa [4]) was 99,000 ± 7,000 M^-1 s^-1.

For “BODIPY-PEG(4)-Tyr(2,6-Cl2-Z)-Nle-Glu(Bzl)-ArgP(OPh)2 [P-SMXI52]”, the “probe concentration from which a clear fXIa band is observed in human plasma” value (fXIa [5]; probe 1-20 μM, SDS-PAGE, 488 nm, costaining with antifXI antibody) was at least 2 µM, the “selectivity of labeling in human plasma” value (fXIa [5]; probe up to 20 μM) was “remained selective even at a high probe concentration (20 μM)” and the “labeling of purified coagulation factors by fluorescent ABP (blot, 488 nm)” value (fXIa [1]) was “only one fluorescent band generated by fXIa labeling and no off-target signals”.

In the case of “Ac-Tyr(2,6-Cl2-Z)-2-Aoc-Glu(Bzl)-Arg-ACC [SMXI7]”, the “decrease in activity relative to SMXI3 (P2 L-His(Bzl))” value (fXIa [2]) was 1.5 fold.

From paper PMC10041521, “Fluorescent Activity-Based Probe To Image and Inhibit Factor XIa Activity in Human Plasma” (Journal of Medicinal Chemistry, 2023)
